How the values were obtained:
LNCaP tumor-bearing mice = assay: Endoradiotherapy study; assay type: in vivo
Protocol: (§1) SPECT/CT imaging and biodistribution were performed using NOD-scid IL2Rgammanu^null (NSG) male mice, and the endoradiotherapy study was conducted using NOD.Cg-Rag1^tm1MomII2rg^tm1WjI/SzJ (NRG) male mice. The mice were maintained and the experiments were conducted in according to the guidelines established by the Canadian Council on Animal Care and approved by Animal Ethics Committee of the University of British Columbia. Mice were anesthetized by inhalation with 2% isoflurane in oxygen, and implanted subcutaneously with 1×10^7 LNCaP cells posterior to the left shoulder. Mice were used for studies when the tumor reached 5-8 mm in diameter 5-6 weeks after inoculation.
For radiotherapy study, tumor-bearing mice were injected with saline (the control group), ^177Lu-PSMA-617 (18.5 MBq) or ^177Lu-HTK01169 (18.5, 9.3, 4.6, or 2.3 MBq) (n=8 per group). Tumor size and body weight were measured twice a week from the date of injection (Day 0) until completion of the study (Day 120). Endpoint criteria were defined as >20% weight loss, tumor volume >1000 mm^3, or active ulceration of the tumor.

human serum = assay: Plasma protein binding assay; assay type: in vitro ADME; details: for filter-bound radioactivity: n=3
Protocol: 1.16 Plasma Protein Binding Assay
Plasma protein binding assays were performed according to literature methods.^19 Briefly, 37 kBq of ^177Lu-PSMA-617 or ^177Lu-HTK01169 in 50 μL PBS was added into 200 μL human serum and the mixture was incubated at room temperature for […]. The mixture was then loaded onto a membrane filter (Nanosep®, 30 K, Pall Corporation, USA) and centrifuged for 45 min (30,130×g). Saline (50 μL) was added and centrifugation was continued for another 15 min. The top part with the membrane filter and the bottom part with the solution were counted on a gamma counter. For control, saline was used in place of human serum.

[1] = test system: mice bearing LNCaP xenografts; assay: Biodistribution of 177Lu-labeled compounds; assay type: in vivo
Protocol: 1.17 SPECT/CT Imaging, Biodistribution and Endoradiotherapy Studies
as §1
For biodistribution studies, the mice were injected with ^177Ludabeled PSMA-617 or HTK01169 (2-4 MBq) as described above. At predetermined time points (1, 4, 24, 72, or 120 h post-injection), the mice were euthanized by CO2 inhalation. Blood was withdrawn immediately from the heart, and the organs/tissues of interest were collected. The collected organs/tissues were weighed and counted using an automated gamma counter. For the blocking study, mice were co-injected with ^177Lu-HTK01169 (2-4 MBq) and 50 nmol of the non-radioactive standard, and organs/tissues of interest were collected at 4 h post-injection.

Compound: O=C([O-])CN1CCN(CC(=O)[O-])CCN(CC(=O)NCC2CCC(C(=O)N[C@@H](Cc3ccc4ccccc4c3)C(=O)NCCCC[C@H](NC(=O)N[C@@H](CCC(=O)O)C(=O)O)C(=O)O)CC2)CCN(CC(=O)[O-])CC1.[177Lu+3] (stereo partly drawn) [^177Lu-PSMA-617, reference compound]
- change of tumor size over time (LNCaP tumor-bearing mice; 18.5 MBq): shrank initially but grew back later
- Median survival (LNCaP tumor-bearing mice; 18.5 MBq injected, n=8): 58 days
- free radioligand (human serum; human serum): ~17%
- filter-bound radioactivity (human serum; incubated with human serum): 82.7±0.32%
- filter-bound radioactivity (human serum; incubated with saline (control)): 5.21±1.42%
- tumor-to-background contrast ratios, trend ([1]; 1-120 h): improved over time as well
- Adrenal glands uptake ([1]; 1 h post-injection): 4.88±2.41 % ID/g
- Blood uptake ([1]; 1 h post-injection): 0.68±0.23 % ID/g
- Bone uptake ([1]; 1 h post-injection): 0.14 ± 0.06 % ID/g
- Brain uptake ([1]; 1 h post-injection): 0.03 ± 0.01 % ID/g
- Fat uptake ([1]; 1 h post-injection): 0.46 ± 0.18 % ID/g
- Heart uptake ([1]; 1 h post-injection): 0.28 ± 0.10 % ID/g
- Intestine uptake ([1]; 1 h post-injection): 0.26 ± 0.16 % ID/g
- Kidneys uptake ([1]; 1 h post-injection): 97.2±19.4 % ID/g
- Liver uptake ([1]; 1 h post-injection): 0.26 ± 0.15 % ID/g
- Lung uptake ([1]; 1 h post-injection): 1.34±0.39 % ID/g
- Muscle uptake ([1]; 1 h post-injection): 0.18 ± 0.06 % ID/g
- Pancreas uptake ([1]; 1 h post-injection): 0.33 ± 0.18 % ID/g
- Seminal uptake ([1]; 1 h post-injection): 0.14 ± 0.08 % ID/g
- Spleen uptake ([1]; 1 h post-injection): 3.34±1.77 % ID/g
- Stomach uptake ([1]; 1 h post-injection): 0.18 ± 0.14 % ID/g
- Testes uptake ([1]; 1 h post-injection): 0.49 ± 0.22 % ID/g
- Tumor uptake ([1]; 1 h post-injection): 15.1±5.58 % ID/g
- Tumor/blood ratio ([1]; 1 h post-injection): 22.8 ± 6.85
- Tumor/kidney ratio ([1]; 1 h post-injection): 0.15 ± 0.04
- Tumor/muscle ratio ([1]; 1 h post-injection): 86.9 ± 26.6
- Adrenal glands uptake ([1]; 4 h post-injection): 0.40 ± 0.18 % ID/g
- Blood uptake ([1]; 4 h post-injection): 0.12 ± 0.18 % ID/g
- Bone uptake ([1]; 4 h post-injection): 0.06 ± 0.03 % ID/g
- Brain uptake ([1]; 4 h post-injection): 0.02 ± 0.00 % ID/g
- Fat uptake ([1]; 4 h post-injection): 0.16 ± 0.11 % ID/g
- Heart uptake ([1]; 4 h post-injection): 0.04 ± 0.02 % ID/g
- Intestine uptake ([1]; 4 h post-injection): 0.07 ± 0.04 % ID/g
- Kidneys uptake ([1]; 4 h post-injection): 26.6 ± 19.1 % ID/g
- Liver uptake ([1]; 4 h post-injection): 0.08 ± 0.06 % ID/g
- Lung uptake ([1]; 4 h post-injection): 0.16 ± 0.07 % ID/g
- Muscle uptake ([1]; 4 h post-injection): 0.05 ± 0.03 % ID/g
- Pancreas uptake ([1]; 4 h post-injection): 0.05 ± 0.01 % ID/g
- Seminal uptake ([1]; 4 h post-injection): 0.02 ± 0.01 % ID/g
- Spleen uptake ([1]; 4 h post-injection): 0.24 ± 0.14 % ID/g
- Stomach uptake ([1]; 4 h post-injection): 0.04 ± 0.02 % ID/g
- Testes uptake ([1]; 4 h post-injection): 0.06 ± 0.01 % ID/g
- Tumor uptake ([1]; 4 h post-injection): 14.5 ± 1.83 % ID/g
- Tumor/blood ratio ([1]; 4 h post-injection): 290 ± 175
- Tumor/kidney ratio ([1]; 4 h post-injection): 0.79 ± 0.48
- Tumor/muscle ratio ([1]; 4 h post-injection): 371 ± 171
- Adrenal glands uptake ([1]; 24 h post-injection): 0.06 ± 0.03 % ID/g
- Blood uptake ([1]; 24 h post-injection): 0.00 ± 0.00 % ID/g
- Bone uptake ([1]; 24 h post-injection): 0.03 ± 0.02 % ID/g
- Brain uptake ([1]; 24 h post-injection): 0.01 ± 0.00 % ID/g
- Fat uptake ([1]; 24 h post-injection): 0.08 ± 0.03 % ID/g
- Heart uptake ([1]; 24 h post-injection): 0.01 ± 0.00 % ID/g
- Intestine uptake ([1]; 24 h post-injection): 0.02 ± 0.00 % ID/g
- Kidneys uptake ([1]; 24 h post-injection): 0.58 ± 0.22 % ID/g
- Liver uptake ([1]; 24 h post-injection): 0.03 ± 0.01 % ID/g
- Lung uptake ([1]; 24 h post-injection): 0.03 ± 0.01 % ID/g
- Muscle uptake ([1]; 24 h post-injection): 0.01 ± 0.00 % ID/g
- Pancreas uptake ([1]; 24 h post-injection): 0.01 ± 0.00 % ID/g
- Seminal uptake ([1]; 24 h post-injection): 0.01 ± 0.00 % ID/g
- Spleen uptake ([1]; 24 h post-injection): 0.05 ± 0.01 % ID/g
- Stomach uptake ([1]; 24 h post-injection): 0.04 ± 0.02 % ID/g
- Testes uptake ([1]; 24 h post-injection): 0.02 ± 0.01 % ID/g
- Tumor uptake ([1]; 24 h post-injection): 10.9 ± 3.30 % ID/g
- Tumor/blood ratio ([1]; 24 h post-injection): 2293 ± 651
- Tumor/kidney ratio ([1]; 24 h post-injection): 20.7 ± 8.39
- Tumor/muscle ratio ([1]; 24 h post-injection): 1582 ± 353
- Adrenal glands uptake ([1]; 72 h post-injection): 0.10 ± 0.06 % ID/g
- Blood uptake ([1]; 72 h post-injection): 0.00 ± 0.00 % ID/g
- Bone uptake ([1]; 72 h post-injection): 0.05 ± 0.02 % ID/g
- Brain uptake ([1]; 72 h post-injection): 0.01 ± 0.00 % ID/g
- Fat uptake ([1]; 72 h post-injection): 0.05 ± 0.02 % ID/g
- Heart uptake ([1]; 72 h post-injection): 0.01 ± 0.01 % ID/g
- Intestine uptake ([1]; 72 h post-injection): 0.01 ± 0.01 % ID/g
- Kidneys uptake ([1]; 72 h post-injection): 0.22 ± 0.11 % ID/g
- Liver uptake ([1]; 72 h post-injection): 0.02 ± 0.01 % ID/g
- Lung uptake ([1]; 72 h post-injection): 0.02 ± 0.01 % ID/g
- Muscle uptake ([1]; 72 h post-injection): 0.01 ± 0.00 % ID/g
- Pancreas uptake ([1]; 72 h post-injection): 0.01 ± 0.01 % ID/g
- Seminal uptake ([1]; 72 h post-injection): 0.01 ± 0.01 % ID/g
- Spleen uptake ([1]; 72 h post-injection): 0.03 ± 0.02 % ID/g
- Stomach uptake ([1]; 72 h post-injection): 0.03 ± 0.03 % ID/g
- Testes uptake ([1]; 72 h post-injection): 0.01 ± 0.00 % ID/g
- Tumor uptake ([1]; 72 h post-injection): 7.80 ± 3.69 % ID/g
- Tumor/blood ratio ([1]; 72 h post-injection): 2206 ± 337
- Tumor/kidney ratio ([1]; 72 h post-injection): 38.0 ± 13.4
- Tumor/muscle ratio ([1]; 72 h post-injection): 1378 ± 335
- Adrenal glands uptake ([1]; 120 h post-injection): 0.04 ± 0.02 % ID/g
- Blood uptake ([1]; 120 h post-injection): 0.00 ± 0.00 % ID/g
- Bone uptake ([1]; 120 h post-injection): 0.02 ± 0.01 % ID/g
- Brain uptake ([1]; 120 h post-injection): 0.01 ± 0.00 % ID/g
- Fat uptake ([1]; 120 h post-injection): 0.03 ± 0.01 % ID/g
- Heart uptake ([1]; 120 h post-injection): 0.00 ± 0.00 % ID/g
- Intestine uptake ([1]; 120 h post-injection): 0.03 ± 0.03 % ID/g
- Kidneys uptake ([1]; 120 h post-injection): 0.08 ± 0.03 % ID/g
- Liver uptake ([1]; 120 h post-injection): 0.01 ± 0.00 % ID/g
- Lung uptake ([1]; 120 h post-injection): 0.01 ± 0.00 % ID/g
- Muscle uptake ([1]; 120 h post-injection): 0.00 ± 0.00 % ID/g
- Pancreas uptake ([1]; 120 h post-injection): 0.00 ± 0.00 % ID/g
- Seminal uptake ([1]; 120 h post-injection): 0.00 ± 0.00 % ID/g
- Spleen uptake ([1]; 120 h post-injection): 0.02 ± 0.01 % ID/g
- Stomach uptake ([1]; 120 h post-injection): 0.05 ± 0.05 % ID/g
- Testes uptake ([1]; 120 h post-injection): 0.01 ± 0.00 % ID/g
- Tumor uptake ([1]; 120 h post-injection): 7.91±2.82 % ID/g
- Tumor/blood ratio ([1]; 120 h post-injection): 4425 ± 1485
- Tumor/kidney ratio ([1]; 120 h post-injection): 103 ± 75.9
- Tumor/muscle ratio ([1]; 120 h post-injection): 4388 ± 4211
- blood clearance (qualitative) ([1]; mouse, in vivo): cleared rapidly from blood
- peaked tumor uptake ([1]; peak over 1-120 h): 15.1±5.58 % ID/g

From patent US20200339625A1, “NOVEL RADIOMETAL-BINDING COMPOUNDS FOR DIAGNOSIS OR TREATMENT OF PROSTATE SPECIFIC MEMBRANE ANTIGEN-EXPRESSING CANCER” (PROVINCIAL HEALTH SERVICES AUTHORITY, priority 2017, published 2020)
